What was measured:
MCF-7 = test: SRB antiproliferative assay, MCF-7; format: cell-based, human; settings: Homo sapiens, MCF7, 96 h treatment, mean ± SEM, read-out: IC50 MCF-7 (prescreen)
Description: Initially, the human breast cancer cell line MCF-7 was used in a prescreen analysis of the anticancer activity of 3-arylisoquinolinones. The cells were treated with serial concentrations of compounds 2–8 for 96 h prior to the assessment of proliferation using the sulforhodamine B (SRB) assay. For each compound, the concentration required to inhibit cell growth by 50% compared to that of the untreated control cells (IC50) was determined (Table 1).
All cell lines used in the study were human-derived and purchased from ATCC (Manassas, USA). Breast adenocarcinoma MCF-7 and MDA-MB-231 cell lines were cultured in DMEM. Hepatocellular carcinoma HepG2 and SNU423 cell lines were grown in MEME combined with 1% (v/v) nonessential amino acids and RPMI supplemented with 2 mM glutamine, respectively. Lung adenocarcinoma A549 and colorectal carcinoma HCT116 cells were grown in RPMI (+2 mM glutamine). All previous media were further supplemented with 10% heat-inactivated fetal bovine serum. The immortalized, normal liver THLE-3 cells were grown in BEGM (Lonza, Cat# CC-3170) onto precoated vessels according to ATCC’s instructions. Human umbilical vein endothelial cells (HUVECs) were cultured in EGM-2 (Lonza, Cat# CC-3162). All of the cells were maintained at 37 °C and 5% CO2 in a humidified incubator.
Screening of the antiproliferative activity of 3-arylisoquinolinones was performed using the SRB assay as previously described.[56] Exponentially growing HepG2, SNU423, MDA-MB-231, MCF-7, A549, HCT116, THLE-3, and HUVECs were seeded in 96-well plates at densities of 3000, 2000, 1500, 2500, 1000, 1000, 4000, and 4000 cells/well, respectively. These densities were experimentally selected so that the DMSO-treated cells (control) were approximately 80–90% confluent at the assay’s endpoint, and their optical density (OD) values fell within the assay’s linear range. After overnight incubation, the cells were treated with a range of concentrations of the respective compounds for 96 h, 24 h followed by 72 h compound-free incubation or 24 h (for HUVECs only). After treatment, cell monolayers were fixed with 10% (w/v) trichloroacetic acid for 1 h at 4 °C, washed, and dried. Then, the cells were exposed to 0.4% (w/v) SRB dye (prepared in 1% (v/v) acetic acid; Botium, Cat# 80100) for 15 min followed by several 1% acetic acid washing and then drying. Finally, the cellular protein-bound SRB was thoroughly dissolved in 10 mM Tris base, and the OD values were read at 510 nm using a plate reader (μQuant Microplate Spectrophotometer, Biotek, U.K.) coupled with Gen5 software (BioTek, U.K.). Compound-induced changes in cell growth were inferred from changes in OD values. Cell growth was calculated using the following formula: cell growth (%) = (ODtest/ODcontrol) × 100.

HUVECs [1] = test: Cytoskeleton immunofluorescence; format: cell-based, human; settings: 0.5, 1 μM, 24 h
Source text: The disruption was characterized by shortened microtubules with outer blebbing filled with tubulin and thicker and brighter actin fibers (stress fibers). Many rounded and retracted cells were also observed in HUVECs treated with 4. […] Taken together, 4 induced morphological alterations in endothelial cells are possibly the reason behind the disruption of the preexisting tubes of HUVECs cultured on Matrigel. […] Throughout the next steps, all of the reagents were removed by washing, flicking, and gently dabbing the slide against a tissue paper. The cells were then washed with PBS containing calcium and magnesium (Sigma, Cat# D1283), fixed with 10% formalin solution (Sigma, Cat# HT5014) for 15 min, and permeabilized with 0.2% (v/v) Triton X-100 for 5 min. Next, the cells were exposed to 1 h incubation with blocking buffer made of 10% (v/v) normal goat serum (Vector Laboratories, Cat# S-1000), 1% (w/v) bovine serum albumin (Sigma, Cat# A9418), and 0.3 M glycine in PBS-T (0.05% Tween-20 in PBS). The cells were then incubated with rabbit α-tubulin primary antibody (1:1000 in the blocking buffer, Abcam, Cat# ab52866) for 2 h at RT after three times washing with PBS-T, each for 5 min. […] Finally, the cytoskeleton was visualized at 63x, oil-based magnification using fluorescence, inverted microscope (Leica DMI6000B, Leica Microsystems). […]

purified bovine tubulin = test: Cell-free tubulin polymerization assay; format: biochemical
Source text: Experimentally, the direct interaction of 4 with tubulin was investigated in a cell-free system using a tubulin polymerization assay. […] In control samples, α- and β-tubulin subunits were able to heterodimerize and assemble into microtubules in a time-dependent manner as indicated by increasing absorbance values over time. […] This indicates the incidence of fast polymerization associated with the formation of a denser microtubule mass. […] It is worth mentioning that microtubule dynamics can be potently altered by microtubule-stabilizing or -destabilizing compounds at doses 10- to 100-fold lower than those required for increasing or decreasing the microtubule polymer mass.[31]
The cell-free tubulin polymerization experiment was performed using the Tubulin Polymerization Assay Kit according to the manufacturer’s instructions (Millipore, Cat# 17-10194). The light absorbed by microtubules, which were formed upon tubulin polymerization, is directly proportional to the polymer mass. […] Immediately, the plate was placed in a 37 °C-prewarmed plate reader (BMG LABTECH FLUOstar Omega, Germany) and the absorbance was measured at 1 min intervals for 60 min at a wavelength of 350 nm. The delta absorbance (ΔA) was calculated by subtracting the absorbance values of zero time from those of the subsequent time points and then plotted versus time.

HUVECs [2] = test: SRB assay of endothelial cell proliferation; format: cell-based; settings: 24 h, up to 10 μM
Description: Compound 4 was further elucidated whether it blocked the formation of capillary-like tubes and disrupted the already existing tubes of HUVECs as a result of inducing endothelial cell death. Accordingly, the growth of HUVECs treated with 4 was investigated using the SRB assay. HUVECs were plated on 96-well plates without prior coating with Matrigel and then exposed to different concentrations of 4 for 24 h.
All cell lines used in the study were human-derived and purchased from ATCC (Manassas, USA). Breast adenocarcinoma MCF-7 and MDA-MB-231 cell lines were cultured in DMEM. Hepatocellular carcinoma HepG2 and SNU423 cell lines were grown in MEME combined with 1% (v/v) nonessential amino acids and RPMI supplemented with 2 mM glutamine, respectively. Lung adenocarcinoma A549 and colorectal carcinoma HCT116 cells were grown in RPMI (+2 mM glutamine). […]
Screening of the antiproliferative activity of 3-arylisoquinolinones was performed using the SRB assay as previously described.[56] […] Finally, the cellular protein-bound SRB was thoroughly dissolved in 10 mM Tris base, and the OD values were read at 510 nm using a plate reader (μQuant Microplate Spectrophotometer, Biotek, U.K.) coupled with Gen5 software (BioTek, U.K.). […] Cell growth was calculated using the following formula: cell growth (%) = (ODtest/ODcontrol) × 100.

Structure (SMILES) | IC50 (MCF-7) [µM] | effect on cytoskeleton network (actin and microtubules) (HUVECs [1]) | suppression of tubulin polymerization at highest concentration (purified bovine tubulin; 20 μM, nocodazole 10 μM) | effect on tubulin polymerization (purified bovine tubulin; 5, 10, 20 μM, 37 °C, absorbance 350 nm) | effect on proliferation of HUVECs (HUVECs [2])
O=c1[nH]c(-c2ccc(F)cc2)cc2cc(F)ccc12 [compound 5, 6-Fluoro-3-(4-fluorophenyl)isoquinolin-1(2H)-one] | > 50 | – | – | – | –
O=c1[nH]c(-c2cccc(F)c2)cc2cc(F)ccc12 [compound 4, 6-Fluoro-3-(3-fluorophenyl)isoquinolin-1(2H)-one] | – | marked disruption in the cytoskeleton network | as effective in suppressing tubulin polymerization as the positive control (nocodazole) | hindered tubulin polymerization in a concentration-dependent manner | not able to significantly diminish the proliferation of HUVECs

From paper PMC9098178, “SAR of Novel 3-Arylisoquinolinones: meta-Substitution on the Aryl Ring Dramatically Enhances Antiproliferative Activity through Binding to Microtubules” (Journal of Medicinal Chemistry, 2022)
